# Source: patent US20240207455A1, “COMBINATION COMPRISING A NEUROTENSIN RECEPTOR BINDING COMPOUND AND NAPOX” (Fusion Pharmaceuticals Inc., priority 2021, published 2024)
# Test system: subcutaneous AsPC1 tumors
# Assay: Efficacy study in mice bearing subcutaneous AsPC1 tumors (tumor volume)
# Type: in vivo, SWISS Nude mice
# Details: ^177Lu-IPN01087 20 MBq/mouse IV weekly x3; NAPOX: oxaliplatin 3.75 mg/kg, liposomal irinotecan 16 mg/kg, folinic acid 75 mg/kg, 5-FU 37.5 mg/kg weekly x2; Groups 2, 3, 5 vs vehicles
# Protocol: The AsPC1 cell line was isolated from a metastatic site (ascites) from a patient (Chen WH. et al., In Vitro. 1982 January; 18(1):24-34).
# Tumor cells were grown as monolayer at 37° C. in a humidified atmosphere (5% CO2, 95% air). The culture medium is RPMI 1640 containing glutamax supplemented with 10% heat inactivated fetal bovine serum, sodium pyruvate and hepes. For experimental use, tumor cells were detached from the culture flask using accutase and neutralized by addition of complete culture medium. The cells were counted and their viability was assessed by 0.25% trypan blue exclusion assay. Two frozen pellets of AsPC-1 tumor cells were prepared: one frozen cell pellet prepared during the in-vitro cell culture, and one frozen cell pellet prepared using the cell suspension used for tumor induction in mice.
# One hundred fifty (150) healthy female SWISS Nude mice (Crl:NU(Ico)-Foxn1 nu), 6-7 weeks old at reception, were obtained from Charles River.
# Tumors were induced by subcutaneous injection of ten million (10^7) AsPC-1 cells in 200 μL of RPMI 1640 medium containing matrigel (50:50, v:v, ref: 356237, BD Biosciences, France) into the right flank (in the axis of the heart) of 150 female animals. […]
# The treatment efficacy was assessed in terms of the effects of the treatments on the tumor volumes of treated animals relative to control animals. […]
substance,measurement,value
^177Lu-zalsenertant tetraxetan [^177Lu-IPN01087],"AsPC-1 tumor growth (tumor volume), FIG. 2",produced an antitumor effect when compared to the vehicles
